Results as given in US12202835B2, “Substituted aromatic ring-linked dioxinoquinazolines and dioxinoquinolines as kinase inhibitors” (BEIJING SCITECH-MQ PHARMACEUTICALS LIMITED, priority 2018, dated 2025).
Read-outs that look alike come from different tables or passages of the source.

What was measured:
TRKA kinase = TRKA kinase (Homo sapiens (Human), UniProt P04629); assay: Assay of small molecular compounds for inhibiting the activity of TRKA kinase (LANCE TR-FRET); format: biochemical
How it was run: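 TRKA (supplied as 2 nM 2× solution) was pre-reacted with compounds for 5 min at room temperature before a 4× ULight-TK peptide/ATP mix (400 nM/40 μM) started the 60-min dark reaction at 1% DMSO. After stop and 60-min detection, TR-FRET was read.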

VEGFR-2 kinase = VEGFR-2 kinase (Homo sapiens (Human), UniProt P35968); assay: Assay of small molecular compounds for inhibiting the activity of VEGFR-2 kinase (LANCE TR-FRET); format: biochemical; conditions: read-out: VEGFR2 IC50
How it was run: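 LANCE TR-FRET with human VEGFR-2 (2× stock 0.5 nM) preincubated 30 min with compound (final 2500 to 0.042 nM, 11-point 3-fold), then ULight-JAK-1 (Tyr1023) peptide/ATP added (4× stocks 200 nM/40 μM). Reaction 60 min room temperature, 4% DMSO; IC50 from inhibition-rate curve.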

Ba/F3-AXL cells = assay: Assay for inhibiting the proliferation of Ba/F3-AXL cells (CCK-8); format: cell-based; conditions: 72 hours of incubation, medium with 100 ng/mL hGas6, CCK-8
Description: The values were then imported into Graphpad Prism 5 software for curve fitting, and IC50 was calculated.

Ba/F3 LMNA-NTRK1 cells = assay: Assay for inhibiting the proliferation of Ba/F3 LMNA-NTRK1 cells (CCK-8); format: cell-based
How it was run: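 Viability was read as absorbance at 450 nm following 1–2 h CCK-8 incubation at 37 °C, relative to control and blank wells.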

TRKA kinase, sequence (P04629 33-796): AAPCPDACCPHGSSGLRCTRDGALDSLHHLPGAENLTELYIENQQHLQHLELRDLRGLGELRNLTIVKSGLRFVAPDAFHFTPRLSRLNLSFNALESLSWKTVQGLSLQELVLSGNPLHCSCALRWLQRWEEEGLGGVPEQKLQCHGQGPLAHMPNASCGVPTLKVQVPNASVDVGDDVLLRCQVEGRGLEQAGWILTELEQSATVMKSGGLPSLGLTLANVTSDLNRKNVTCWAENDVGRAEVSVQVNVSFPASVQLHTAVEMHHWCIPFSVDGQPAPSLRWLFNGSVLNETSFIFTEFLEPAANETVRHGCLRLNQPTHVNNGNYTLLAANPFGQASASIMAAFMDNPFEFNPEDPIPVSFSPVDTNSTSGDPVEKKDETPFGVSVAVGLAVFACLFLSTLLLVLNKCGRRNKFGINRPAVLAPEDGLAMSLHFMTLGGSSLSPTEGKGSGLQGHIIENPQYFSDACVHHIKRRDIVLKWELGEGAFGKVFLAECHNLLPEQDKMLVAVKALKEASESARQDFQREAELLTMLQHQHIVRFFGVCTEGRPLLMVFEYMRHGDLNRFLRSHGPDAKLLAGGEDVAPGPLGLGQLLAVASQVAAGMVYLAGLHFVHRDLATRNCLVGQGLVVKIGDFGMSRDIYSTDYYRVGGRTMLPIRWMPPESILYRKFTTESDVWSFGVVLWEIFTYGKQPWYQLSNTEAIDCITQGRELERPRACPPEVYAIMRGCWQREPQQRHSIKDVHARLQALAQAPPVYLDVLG
VEGFR-2 kinase, sequence (P35968 20-1356): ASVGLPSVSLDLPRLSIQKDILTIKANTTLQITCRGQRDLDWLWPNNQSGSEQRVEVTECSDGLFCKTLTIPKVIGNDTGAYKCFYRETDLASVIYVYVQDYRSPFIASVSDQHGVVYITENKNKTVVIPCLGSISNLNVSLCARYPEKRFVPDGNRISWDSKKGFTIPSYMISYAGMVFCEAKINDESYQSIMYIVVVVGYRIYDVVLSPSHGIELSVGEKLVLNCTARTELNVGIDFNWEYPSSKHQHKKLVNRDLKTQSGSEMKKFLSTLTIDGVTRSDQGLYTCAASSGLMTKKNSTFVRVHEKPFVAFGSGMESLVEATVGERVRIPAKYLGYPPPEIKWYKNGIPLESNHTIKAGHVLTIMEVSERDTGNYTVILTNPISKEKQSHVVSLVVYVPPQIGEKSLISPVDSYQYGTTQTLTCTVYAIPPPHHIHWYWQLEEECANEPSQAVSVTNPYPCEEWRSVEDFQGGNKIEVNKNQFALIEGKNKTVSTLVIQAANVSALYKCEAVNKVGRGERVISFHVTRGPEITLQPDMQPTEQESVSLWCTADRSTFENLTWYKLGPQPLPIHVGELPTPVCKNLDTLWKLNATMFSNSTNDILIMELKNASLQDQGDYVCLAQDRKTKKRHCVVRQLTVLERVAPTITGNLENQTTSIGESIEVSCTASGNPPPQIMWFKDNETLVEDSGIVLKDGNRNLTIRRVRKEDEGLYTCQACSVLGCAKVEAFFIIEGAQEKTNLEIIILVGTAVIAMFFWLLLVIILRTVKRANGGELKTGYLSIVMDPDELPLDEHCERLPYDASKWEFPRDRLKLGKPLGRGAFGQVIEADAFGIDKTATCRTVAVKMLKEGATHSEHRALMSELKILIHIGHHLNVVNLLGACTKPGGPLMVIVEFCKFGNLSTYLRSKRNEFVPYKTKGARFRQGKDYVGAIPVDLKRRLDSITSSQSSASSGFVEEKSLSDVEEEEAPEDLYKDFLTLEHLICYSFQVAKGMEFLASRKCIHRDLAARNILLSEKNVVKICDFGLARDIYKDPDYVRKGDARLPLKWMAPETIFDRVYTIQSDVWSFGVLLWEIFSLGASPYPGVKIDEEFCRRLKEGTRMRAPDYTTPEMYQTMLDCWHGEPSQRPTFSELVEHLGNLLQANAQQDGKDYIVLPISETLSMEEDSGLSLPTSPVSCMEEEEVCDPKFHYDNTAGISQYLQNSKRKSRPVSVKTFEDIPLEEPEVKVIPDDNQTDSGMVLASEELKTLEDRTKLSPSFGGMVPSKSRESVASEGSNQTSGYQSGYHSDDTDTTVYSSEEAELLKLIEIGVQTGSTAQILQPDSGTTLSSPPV

Row | IC50 (TRKA kinase) | IC50 (VEGFR-2 kinase) | IC50 (Ba/F3-AXL cells) | IC50 (Ba/F3 LMNA-NTRK1 cells; Mus musculus, BaF3) | IC50 (Ba/F3 LMNA-NTRK1 cells) | Structure (SMILES)
1 | < 50 nM | 50 to 500 nM | < 50 nM | < 50 nM | – | CCOc1ccn(-c2ccc(F)cc2)c(=O)c1C(=O)Nc1ccc(Oc2ccnc3cc(OC)c4c(c23)OCCO4)cc1Cl [Example 126, N-(2-chloro-4-((5-methoxy-2,3-dihydro-[1,4]dioxino[2,3-f]quinolin-10-yl)oxy)phenyl)-1-(4-fluorophenyl)-4-ethoxy-2-oxo-1,2-dihydropyridine-3-carboxamide]
2 | < 50 nM | 50 to 500 nM | < 50 nM | < 50 nM | – | CCOc1ccn(-c2ccc(F)cc2)c(=O)c1C(=O)Nc1ccc(Oc2ccnc3cc(OCC(C)(C)O)c4c(c23)OCCO4)c(F)c1 [Example 120, N-(3-fluoro-4-((5-(2-hydroxy-2-methylpropoxy)-2,3-dihydro-[1,4]dioxino[2,3-f]quinolin-10-yl)oxy)phenyl)-4-ethoxy-1-(4-fluorophenyl)-2-oxo-1,2-dihydropyridine-3-carboxamide]
3 | < 50 nM | 50 to 500 nM | < 50 nM | 50 to 200 nM | – | CCOc1ccn(-c2ccc(F)cc2)c(=O)c1C(=O)Nc1ccc(Oc2ccnc3cc(OCC4(N)CC4)c4c(c23)OCCO4)c(F)c1 [Example 105, N-(4-((5-((1-aminocyclopropyl)methoxy)-2,3-dihydro-[1,4]dioxino[2,3-f]quinolin-10-yl)oxy)-3-fluorophenyl)-4-ethoxy-1-(4-fluorophenyl)-2-oxo-1,2-dihydropyridine-3-carboxamide]
4 | < 50 nM | ≤ 50 nM | < 50 nM | < 50 nM | – | CCOc1ccn(-c2ccc(F)cc2)c(=O)c1C(=O)Nc1ccc(Oc2ccnc3cc(OCCOC)c4c(c23)OCCO4)c(F)c1 [Example 36, N-(3-fluoro-4-((5-(2-methoxyethoxy)-2,3-dihydro-[1,4]dioxino[2,3-f]quinolin-10-yl)oxy)phenyl)-1-(4-fluorophenyl)-4-ethoxy-2-oxo-1,2-dihydropyridine-3-carboxamide]
5 | < 50 nM | 50 to 500 nM | < 50 nM | < 50 nM | – | Cn1cc(C(=O)Nc2ccc(Oc3ccnc4cc(OCCCN5CCOCC5)c5c(c34)OCCO5)c(F)c2)c(=O)n(-c2ccc(F)cc2)c1=O [Example 15, N-(3-fluoro-4-((5-(3-morpholinopropoxy)-2,3-dihydro-[1,4]dioxino[2,3-f]quinolin-10-yl)oxy)phenyl)-3-(4-fluorophenyl)-1-methyl-2,4-dioxo-1,2,3,4-tetrahydropyrimidine-5-carboxamide]
6 | < 50 nM | > 5000 nM | > 5000 nM | > 1000 nM | – | COc1cc2nccc(Oc3ccc(NC(=O)c4cn(CC(=O)O)c(=O)n(-c5ccc(F)cc5)c4=O)cc3F)c2c2c1OCCO2 [Example 104, 2-(5-((3-fluoro-4-((5-methoxy-2,3-dihydro-[1,4]dioxino[2,3-f]quinolin-10-yl)oxy)phenyl)carbamoyl)-3-(4-fluorophenyl)-2,4-dioxo-3,4-dihydropyrimidin-1(2H)-yl)acetic acid]
7 | < 50 nM | 500 to 5000 nM | < 50 nM | < 50 nM | – | Cn1cc(C(=O)Nc2ccc(Oc3ccnc4cc(OCCCN5CCOCC5)c5c(c34)OCCO5)cc2Cl)c(=O)n(-c2ccc(F)cc2)c1=O [Example 98, N-(2-chloro-4-((5-(3-morpholinopropoxy)-2,3-dihydro-[1,4]dioxino[2,3-f]quinolin-10-yl)oxy)phenyl)-3-(4-fluorophenyl)-1-methyl-2,4-dioxo-1,2,3,4-tetrahydropyrimidine-5-carboxamide]
8 | < 50 nM | ≤ 50 nM | < 50 nM | < 50 nM | – | COc1cn(-c2ccc(F)cc2C)nc1C(=O)Nc1ccc(Oc2ccnc3cc(OCCCN4CCOCC4)c4c(c23)OCCO4)c(F)c1 [Example 27, 1-(4-fluoro-2-methylphenyl)-N-(3-fluoro-4-((5-(3-morpholinopropoxy)-2,3-dihydro-[1,4]dioxino[2,3-f]quinolin-10-yl)oxy)phenyl)-4-methoxy-1H-pyrazole-3-carboxamide]
9 | < 50 nM | ≤ 50 nM | < 50 nM | < 50 nM | – | CCOc1ccn(-c2ccc(F)cc2)c(=O)c1C(=O)Nc1ccc(Oc2ccnc3cc(OCCCN4CCOCC4)c4c(c23)OCCO4)c(F)c1 [Example 22, N-(3-fluoro-4-((5-(3-morpholinopropoxy)-2,3-dihydro-[1,4]dioxino[2,3-f]quinolin-10-yl)oxy)phenyl)-1-(4-fluorophenyl)-4-ethoxy-2-oxo-1,2-dihydropyridine-3-carboxamide]
10 | < 50 nM | 500 to 5000 nM | < 50 nM | < 50 nM | – | COc1ccn(-c2ccc(F)cc2)c(=O)c1C(=O)Nc1ccc(Oc2ccnc3cc(OCCCC#N)c4c(c23)OCCO4)cc1Cl [Example 132, N-(2-chloro-4-((5-(3-cyanopropoxy)-2,3-dihydro-[1,4]dioxino[2,3-f]quinolin-10-yl)oxy)phenyl)-1-(4-fluorophenyl)-4-methoxy-2-oxo-1,2-dihydropyridine-3-carboxamide]
11 | < 50 nM | 500 to 5000 nM | < 50 nM | < 50 nM | – | CC(C)n1cc(C(=O)Nc2ccc(Oc3ccnc4cc(OCCCN(C)C5CCC5)c5c(c34)OCCO5)c(F)c2)c(=O)n(-c2ccc(F)cc2)c1=O [Example 96, N-(3-fluoro-4-((5-(3-((cyclobutyl)(methyl)amino)propoxy)-2,3-dihydro-[1,4]dioxino[2,3-f]quinolin-10-yl)oxy)phenyl)-3-(4-fluorophenyl)-1-isopropyl-2,4-dioxo-1,2,3,4-tetrahydropyrimidine-5-carboxamide]
12 | < 50 nM | ≤ 50 nM | < 50 nM | < 50 nM | – | CCOc1ccn(-c2ccc(F)cc2)c(=O)c1C(=O)Nc1ccc(Oc2ccnc3cc(OCCCN4CCCCC4)c4c(c23)OCCO4)c(F)c1 [Example 33, N-(3-fluoro-4-((5-(3-(piperidin-1-yl)propoxy)-2,3-dihydro-[1,4]dioxino[2,3-f]quinolin-10-yl)oxy)phenyl)-1-(4-fluorophenyl)-4-ethoxy-2-oxo-1,2-dihydropyridine-3-carboxamide]
13 | < 50 nM | 500 to 5000 nM | < 50 nM | < 50 nM | – | COc1cc2nccc(Oc3ccc(NC(=O)c4cn(C)c(=O)n(-c5ccc(F)cc5)c4=O)cc3F)c2c2c1OCCO2 [Example 13, N-(3-fluoro-4-((5-methoxy-2,3-dihydro-[1,4]dioxino[2,3-f]quinolin-10-yl)oxy)phenyl)-3-(4-fluorophenyl)-1-methyl-2,4-dioxo-1,2,3,4-tetrahydropyrimidine-5-carboxamide]
14 | < 50 nM | ≤ 50 nM | < 50 nM | < 50 nM | – | COc1ccn(-c2ccc(F)cc2)c(=O)c1C(=O)Nc1ccc(Oc2ccnc3cc(OCCCN4CCOCC4)c4c(c23)OCCO4)c(F)c1 [Example 21, N-(3-fluoro-4-((5-(3-morpholinopropoxy)-2,3-dihydro-[1,4]dioxino[2,3-f]quinolin-10-yl)oxy)phenyl)-1-(4-fluorophenyl)-4-methoxy-2-oxo-1,2-dihydropyridine-3-carboxamide]
15 | < 50 nM | ≤ 50 nM | < 50 nM | – | < 50 nM | O=C(Nc1ccc(Oc2ccnc3cc(OCCCN4CCCCC4)c4c(c23)OCCO4)c(F)c1)c1cccn(-c2ccc(F)cc2)c1=O [Example 31, N-(3-fluoro-4-((5-(3-(piperidin-1-yl)propoxy)-2,3-dihydro-[1,4]dioxino[2,3-f]quinolin-10-yl)oxy)phenyl)-1-(4-fluorophenyl)-2-oxo-1,2-dihydropyridine-3-carboxamide]
16 | < 50 nM | 500 to 5000 nM | < 50 nM | 50 to 200 nM | – | CC(C)n1cc(C(=O)Nc2ccc(Oc3ccnc4cc(OCCCN5CCC(C)(O)CC5)c5c(c34)OCCO5)c(F)c2)c(=O)n(-c2ccc(F)cc2)c1=O [Example 94, N-(3-fluoro-4-((5-(3-(4-methyl-4-hydroxypiperidin-1-yl)propoxy)-2,3-dihydro-[1,4]dioxino[2,3-f]quinolin-10-yl)oxy)phenyl)-3-(4-fluorophenyl)-1-isopropyl-2,4-dioxo-1,2,3,4-tetrahydropyrimidine-5-carboxamide]
17 | < 50 nM | ≤ 50 nM | < 50 nM | < 50 nM | – | CCOc1ccn(-c2ccc(F)cc2)c(=O)c1C(=O)Nc1ccc(Oc2ccnc3cc(OC)c4c(c23)OCCO4)c(F)c1 [Example 19, N-(3-fluoro-4-((5-methoxy-2,3-dihydro-[1,4]dioxino[2,3-f]quinolin-10-yl)oxy)phenyl)-1-(4-fluorophenyl)-4-ethoxy-2-oxo-1,2-dihydropyridine-3-carboxamide]
18 | < 50 nM | ≤ 50 nM | < 50 nM | < 50 nM | – | COc1ccn(-c2ccc(F)cc2)c(=O)c1C(=O)Nc1ccc(Oc2ccnc3cc(OCCCN4CCCCC4)c4c(c23)OCCO4)c(F)c1 [Example 32, N-(3-fluoro-4-((5-(3-(piperidin-1-yl)propoxy)-2,3-dihydro-[1,4]dioxino[2,3-f]quinolin-10-yl)oxy)phenyl)-1-(4-fluorophenyl)-4-methoxy-2-oxo-1,2-dihydropyridine-3-carboxamide]
